Here are results for 16 compounds from patent US20090053807A1 (Novo Nordisk A/S, priority 1998, published 2009).

The subject of one test is free fat cells. Kind of test: Adipocyte / free fat cell (FFC) assay, 3H glucose incorporation into lipid. Particulars: for FEC: FFC assay potency.
The target in test [1] is T1, human insulin receptor (HIR) (Homo sapiens, UniProt P06213).
T1 construct: made in house
Kind of test: Insulin receptor binding, competition with 125I-labeled insulin (radio-receptor assay). Particulars: HIR binding affinity of synthetic peptides.

Test [2] has as its system FDC-P2 cells expressing the IL-3 and human IGF-1R receptors. Particulars: FDC-P2 cells, Table 15; for ED50 Growth: agonist format.
Setting [3] is: number of + grades agonist potency.

Entries after “also recorded” stand apart in the source; their conditions may differ. Positions of bridges follow the written chain, without caps; N, C: chain ends. Non-standard residues stand in square brackets, D forms with d. Residues, ends and D or L forms follow the SMILES beside them. Chains are numbered I, II in the order given. No end group written: not given here. *: point of attachment. aminooxyacetyl = NOCC(=O)*; Glyoxylyl = O=CC(=O)*

T1 sequence (P06213 28-758 limits assumed): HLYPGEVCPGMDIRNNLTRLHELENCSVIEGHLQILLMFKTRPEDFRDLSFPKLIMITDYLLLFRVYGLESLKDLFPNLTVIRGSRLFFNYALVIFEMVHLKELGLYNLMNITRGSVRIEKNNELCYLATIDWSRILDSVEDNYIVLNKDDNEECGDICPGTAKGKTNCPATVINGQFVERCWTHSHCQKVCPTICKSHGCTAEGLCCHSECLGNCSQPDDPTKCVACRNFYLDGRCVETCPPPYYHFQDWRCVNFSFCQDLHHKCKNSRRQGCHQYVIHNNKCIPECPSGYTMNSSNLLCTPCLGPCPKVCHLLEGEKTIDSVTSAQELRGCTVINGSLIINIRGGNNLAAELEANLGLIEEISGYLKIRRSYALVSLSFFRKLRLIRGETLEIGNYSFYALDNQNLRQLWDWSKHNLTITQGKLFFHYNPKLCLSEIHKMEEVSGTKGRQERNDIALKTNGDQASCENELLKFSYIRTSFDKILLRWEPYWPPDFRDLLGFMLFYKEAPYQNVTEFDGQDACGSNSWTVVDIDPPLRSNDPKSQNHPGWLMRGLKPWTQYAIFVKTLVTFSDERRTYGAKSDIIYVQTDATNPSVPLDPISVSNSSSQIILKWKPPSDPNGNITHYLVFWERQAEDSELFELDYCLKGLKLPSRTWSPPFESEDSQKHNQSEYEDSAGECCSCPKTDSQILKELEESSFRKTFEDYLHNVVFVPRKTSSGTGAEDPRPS
T1 sequence (P06213 763-1382 limits assumed): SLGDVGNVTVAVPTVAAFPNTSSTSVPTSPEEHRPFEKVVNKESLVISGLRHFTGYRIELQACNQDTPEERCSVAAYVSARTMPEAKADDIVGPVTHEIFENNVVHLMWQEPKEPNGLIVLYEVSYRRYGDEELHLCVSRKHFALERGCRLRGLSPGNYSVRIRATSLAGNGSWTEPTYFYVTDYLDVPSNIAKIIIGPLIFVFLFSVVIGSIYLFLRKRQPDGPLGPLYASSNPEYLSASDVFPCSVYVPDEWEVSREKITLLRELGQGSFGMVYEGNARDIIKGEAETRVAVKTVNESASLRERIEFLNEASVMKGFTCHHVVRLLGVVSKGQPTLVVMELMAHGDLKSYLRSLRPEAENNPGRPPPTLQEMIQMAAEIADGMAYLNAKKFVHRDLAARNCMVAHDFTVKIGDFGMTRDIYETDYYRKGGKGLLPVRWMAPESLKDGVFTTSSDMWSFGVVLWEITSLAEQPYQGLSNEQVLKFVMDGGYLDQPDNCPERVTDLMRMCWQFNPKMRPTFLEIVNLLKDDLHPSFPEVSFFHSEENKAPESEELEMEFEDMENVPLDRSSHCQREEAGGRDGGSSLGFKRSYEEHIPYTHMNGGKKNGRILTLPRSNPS

Consider `CC(C)[C@H](NC(=O)[C@H](Cc1ccccc1)NC(=O)[C@H](Cc1c[nH]c2ccccc12)NC(=O)[C@H](CC(=O)O)NC(=O)[C@H](Cc1ccc(O)cc1)NC(=O)[C@H](Cc1ccccc1)NC(=O)[C@H](CC(N)=O)NC(=O)[C@H](CCC(=O)O)NC(=O)[C@H](Cc1c[nH]cn1)NC(=O)[C@@H](N)Cc1ccccc1)C(=O)N[C@@H](CCCNC(=N)N)C(=O)N[C@@H](CCC(N)=O)C(=O)N[C@H](C(=O)N[C@@H](CO)C(=O)N[C@@H](CCCCN)C(=O)N[C@@H](CCCCN)C(=O)N[C@@H](CNC(=O)CON)C(N)=O)C(C)C` [Peptide S131], for which, in the test with free fat cells (setting [3]), the FEC result was “+”.
In test [1], `CC(C)C[C@H](NC(=O)[C@@H](N)CCC(N)=O)C(=O)N[C@@H](CCC(=O)O)C(=O)N[C@@H](CCC(=O)O)C(=O)N[C@@H](CCC(=O)O)C(=O)N[C@@H](Cc1c[nH]c2ccccc12)C(=O)N[C@@H](C)C(=O)NCC(=O)N[C@H](C(=O)N[C@@H](CCC(N)=O)C(=O)N[C@H]1CSSC[C@@H](C(=O)N2CCC[C@H]2C(=O)N[C@@H](CO)C(=O)O)NC(=O)[C@H](CCC(=O)O)NC(=O)[C@H](CCCNC(=N)N)NC(=O)CNC(=O)[C@H](Cc2ccc(O)cc2)NC(=O)[C@H](C(C)C)NC(=O)[C@H](CCC(=O)O)NC1=O)C(C)C` [Peptide S226] (HELM PEPTIDE1{Q.L.E.E.E.W.A.G.V.Q.C.E.V.Y.G.R.E.C.P.S}$PEPTIDE1,PEPTIDE1,11:R3-18:R3$$$V2.0; N-terminus and C-terminus assumed; bridges inferred) had a Kd of 1600 nM.
Regarding `CC(C)C[C@H](NC(=O)[C@H](CCC(=O)O)NC(=O)[C@H](C)NC(=O)[C@@H](NC(=O)[C@H](Cc1ccccc1)NC(=O)[C@H](Cc1c[nH]c2ccccc12)NC(=O)[C@H](CC(=O)O)NC(=O)[C@H](Cc1ccc(O)cc1)NC(=O)[C@H](Cc1ccccc1)NC(=O)[C@H](CC(N)=O)NC(=O)[C@H](C)NC(=O)[C@H](CC(N)=O)NC(=O)[C@H](CCCNC(=N)N)NC(=O)[C@H](CCC(N)=O)NC(=O)[C@H](CC(C)C)NC(=O)[C@H](Cc1c[nH]c2ccccc12)NC(=O)[C@H](CC(=O)O)NC(=O)[C@@H](NC(=O)[C@H](CCCNC(=N)N)NC(=O)CNC(=O)[C@@H](N)CNC(=O)CON)C(C)C)C(C)C)C(=O)NCC(N)=O` [Peptide S245], the FEC result in the test with free fat cells (setting [3]) is “+”.
The same measure, in the same setting: with `CC(C)C[C@@H]1NC(=O)[C@H](CO)NC(=O)[C@H](C)NC(=O)CNC(=O)CNC(=O)[C@H](Cc2ccccc2)NC(=O)[C@H](CC(C)C)NC(=O)[C@H](CCC(=O)O)NC(=O)[C@H](CCC(N)=O)NC(=O)[C@H](CC(C)C)NC(=O)[C@H](Cc2ccccc2)NC(=O)[C@@H](NC(=O)[C@H](CC(C)C)NC(=O)[C@@H]2CCCN2)CSSC[C@@H](C(=O)N[C@@H](CO)C(=O)NCC(=O)O)NC(=O)[C@H](Cc2ccc(O)cc2)NC(=O)CNC(=O)CNC1=O` [Peptide S262] (HELM PEPTIDE1{P.L.C.F.L.Q.E.L.F.G.G.A.S.L.G.G.Y.C.S.G}$PEPTIDE1,PEPTIDE1,3:R3-18:R3$$$V2.0; N-terminus and C-terminus assumed; bridges inferred) the figure was 0; with `CC[C@H](C)[C@@H]1NC(=O)[C@H](CCC(=O)O)NC(=O)[C@@H](NC(=O)[C@H](Cc2c[nH]c3ccccc23)NC(=O)[C@@H](NC(=O)[C@H](Cc2c[nH]c3ccccc23)NC(=O)[C@H](C)NC(=O)[C@H](CCCNC(=N)N)NC(=O)[C@H](CCC(=O)O)NC(=O)[C@H](CCC(N)=O)NC(=O)[C@H](CCC(=O)O)NC(=O)[C@H](CC(C)C)NC(=O)[C@@H](N)Cc2c[nH]c3ccccc23)[C@@H](C)CC)CSSC[C@@H](C(=O)N[C@@H](CCCNC(=N)N)C(=O)N[C@@H](C)C(=O)O)NC(=O)CNC(=O)[C@H](CO)NC(=O)CNC(=O)[C@H](CCC(N)=O)NC1=O` [Peptide S263] (HELM PEPTIDE1{W.L.E.Q.E.R.A.W.I.W.C.E.I.Q.G.S.G.C.R.A}$PEPTIDE1,PEPTIDE1,11:R3-18:R3$$$V2.0; N-terminus and C-terminus assumed; bridges inferred), 0.
With `CC[C@@H](C)[C@@H](NC(=O)[C@H](CCC(=O)O)NC(=O)[C@H](CC(=O)O)NC(=O)[C@H](Cc1ccccc1)NC(=O)[C@H](Cc1c[nH]c2ccccc12)NC(=O)[C@H](CC(=O)O)NC(=O)[C@H](Cc1ccc(O)cc1)NC(=O)[C@H](Cc1ccccc1)NC(=O)[C@H](CCC(=O)O)NC(=O)C(C)(C)NC(=O)[C@H](CC(=O)O)NC(=O)C1(NC(=O)[C@@H](N)CC(=O)O)Cc2ccccc2C1)C(=O)N1CCC[C@H]1C(=O)N[C@H](CCC(N)=O)C(N)=O` [Peptide S319] (HELM PEPTIDE1{D.[O=C(C1(N[*:1])Cc2ccccc2C1)[*:2]].D.[Aib].E.F.Y.D.W.F.D.E.[dI].P.[dQ].[am]}$$$$V2.0), the FEC in the test with free fat cells (setting [3]) is 0.
In the case of `CC[C@@H](C)[C@@H](NC(=O)[C@H](CCC(=O)O)NC(=O)[C@H](CC(=O)O)NC(=O)[C@H](Cc1ccccc1)NC(=O)[C@H](Cc1c[nH]c2ccccc12)NC(=O)[C@H](CC(=O)O)NC(=O)[C@H](Cc1ccc(O)cc1)NC(=O)[C@H](Cc1ccccc1)NC(=O)[C@@H]1C[C@@H](O)CN1C(=O)[C@H](CC(=O)O)NC(=O)[C@H](CCCNC(=N)N)NC(=O)[C@@H](CCC(=O)O)NC(=O)[C@@H](N)Cc1ccc(O)cc1)C(=O)NCC(=O)NCC(N)=O` [Peptide S321], the FEC in the test on free fat cells (setting [3]) was 0.
As for `CC[C@@H](C)[C@@H](NC(=O)[C@H](CCC(=O)O)NC(=O)[C@H](CC(=O)O)NC(=O)[C@H](Cc1ccccc1)NC(=O)[C@H](Cc1c[nH]c2ccccc12)NC(=O)[C@H](CC(=O)O)NC(=O)[C@H](Cc1ccc(O)cc1)NC(=O)[C@H](Cc1ccccc1)NC(=O)[C@@H]1C[C@@H](O)CN1C(=O)[C@H](CC(=O)O)NC(=O)[C@H](CCCNC(=N)N)NC(=O)[C@H](Cc1c[nH]c2ccccc12)NC(=O)[C@@H](N)CCC(=O)O)C(=O)N1C[C@H](O)C[C@H]1C(=O)N[C@H](CCC(=O)O)C(N)=O` [Peptide S322] (HELM PEPTIDE1{E.W.R.D.[Hyp].F.Y.D.W.F.D.E.[dI].[Hyp].[dE].[am]}$$$$V2.0), the FEC in the test on free fat cells (setting [3]) came to 0.
The same measure, in the same setting: under `CC(C)C[C@@H]1NC(=O)[C@H](CO)NC(=O)[C@H](C)NC(=O)CNC(=O)[C@H](Cc2c[nH]c3ccccc23)NC(=O)[C@H](Cc2ccccc2)NC(=O)[C@H](CC(C)C)NC(=O)[C@H](CCC(=O)O)NC(=O)[C@H](CCC(=O)O)NC(=O)[C@H](CC(C)C)NC(=O)[C@H](C(C)C)NC(=O)[C@@H](NC(=O)[C@H](CC(C)C)NC(=O)[C@H](Cc2c[nH]cn2)NC(=O)[C@@H](N)CCCCN)CSSC[C@@H](C(=O)N[C@@H](CO)C(=O)NCC(=O)N[C@@H](CCCCN)C(=O)N[C@@H](CCCCN)C(N)=O)NC(=O)[C@H](Cc2ccc(O)cc2)NC(=O)CNC(=O)[C@H](Cc2ccccc2)NC1=O` [Peptide S331] (HELM PEPTIDE1{K.H.L.C.V.L.E.E.L.F.W.G.A.S.L.F.G.Y.C.S.G.K.K.[am]}$PEPTIDE1,PEPTIDE1,4:R3-19:R3$$$V2.0) stands 0.
`CC(C)C[C@H](NC(=O)[C@H](CCC(N)=O)NC(=O)[C@H](CCCNC(=N)N)NC(=O)[C@H](CCC(=O)O)NC(=O)[C@H](Cc1ccccc1)NC(=O)[C@H](Cc1c[nH]c2ccccc12)NC(=O)[C@H](CC(=O)O)NC(=O)[C@H](Cc1ccc(O)cc1)NC(=O)[C@H](Cc1ccccc1)NC(=O)[C@H](CO)NC(=O)[C@H](CCC(=O)O)NC(=O)[C@H](CC(=O)O)NC(=O)[C@H](CC(C)C)NC(=O)[C@H](CO)NC(=O)CNC(=O)CNC(=O)[C@H](CO)NC(=O)[C@@H]1CSSC[C@H](NC(=O)[C@H](CC(C)C)NC(=O)[C@@H](N)Cc2c[nH]cn2)C(=O)N[C@@H](C(C)C)C(=O)N[C@@H](CC(C)C)C(=O)N[C@@H](CCC(=O)O)C(=O)N[C@@H](CCC(=O)O)C(=O)N[C@@H](CC(C)C)C(=O)N[C@@H](Cc2ccccc2)C(=O)N[C@@H](Cc2c[nH]c3ccccc23)C(=O)NCC(=O)N[C@@H](C)C(=O)N[C@@H](CO)C(=O)N[C@@H](CC(C)C)C(=O)N[C@@H](Cc2ccccc2)C(=O)NCC(=O)N[C@@H](Cc2ccc(O)cc2)C(=O)N1)C(=O)O` [Peptide S521] (HELM PEPTIDE1{H.L.C.V.L.E.E.L.F.W.G.A.S.L.F.G.Y.C.S.G.G.S.L.D.E.S.F.Y.D.W.F.E.R.Q.L}$PEPTIDE1,PEPTIDE1,3:R3-18:R3$$$V2.0; N-terminus and C-terminus assumed; bridges inferred): the FEC entry in the test with free fat cells (number of + grades agonist activity) was “+”.
Turning to (ESFYDWFERQLGK)2-23 [Peptide S415], the “activity in the FFC assay / at IR” value with free fat cells is reported as “highly potent”.
As to “S326 (GIISQSCPESFYDWFAGQVSDPWWCW) [Peptide S326]”, in the test with free fat cells (setting [3]), the FEC result is reported as “−”.
The same measure, in the same setting: with “S419 (chain 1 K(aminooxyacetyl)EWLDQEWAWVQCEVYGRGCPSEE; chain 2 K(aminooxyacetyl)EWLDQEWAWVQCEVYGRGCPSEE; disulfide I:13-I:20, II:13-II:20 (inferred); not fully specified (bridges); also: dimer, the two chains joined N-terminus to N-terminus through linker 14 at the side chain of residue 1) [Peptide S419]” the figure was 0.
As to “S453: Site 1-Site 2 heterodimer, C-N linkage (GSLDESFYDWFERQLGKKK[Glyoxylyl][Glyoxylyl]KEWLDQEWAWVQCEVYGRGCPSEE; disulfide 34-41 (inferred); not fully specified (residue 20, bridges); printed as GSLDESFYDWFERQLGKKK-Ald-17-Ald-KEWLDQ EWAWVQCEVYGRGCPSEE; also: Site 1-Site 2 heterodimer, C-N linkage via linker 17) [Peptide S453]”, the “activity in the FFC assay / at IR” value in the test with free fat cells is recorded as “antagonist activity; also recorded: antagonist properties”.
Turning to “WLDQERAWLWCEISGRGCLSGGSGGSGGSGGSGSLDESFYDWFERQLGKK (disulfide 11-18 (inferred)) [D815-RP9 12 aa]”, in test [2], the “ED50 Growth” value is recorded as 10,000 nM and the “Max Action” value is listed as 100%.
On the same counts, the results for “WLDQERAWLWCEISGRGCLSGGSGGSGSLDESFYDWFERQLGKK (disulfide 11-18 (inferred)) [D815-RP9 6 aa]” are 50 nM and >50%.

What is called Kd is the concentration at which binding is half-saturated. A higher Kd goes with weaker binding.
